{"source": "PubChem BioAssay AID624462", "about": "(National Center for Advancing Translational Sciences (NCATS), 2012)", "tested_on": "PBS pH 7.4 kinetic solubility, LC-UV/MS", "test": "qHTS for Inhibitors of mutant isocitrate dehydrogenase 1 (IDH1): Aqueous Kinetic Solubility", "conditions": "stronger effect = higher value", "from_the_text": "Malignant glioblastomas (WHO grade IV), including primary and secondary glioblastomas, are among the most lethal with a median survival of one year, and unfortunately they are also the most prevalent type of brain tumors. By and large the standard of care of gliomas remains the use of the oral alkylating agent temozolomide and radiotherapy following surgical tumor resection. There is an urgent unmet medical need for novel therapeutics for gliomas. IDH mutations occur in up to 70% of grade II-IV secondary glioblastomas, and IDH1 R132H is the most prevalent mutation. […] Wild-type (WT) IDH1 catalyzes the conversion of isocitrate to a-ketoglutarate with the concomitant reduction of NADP+ to NADPH. In contrast, IDH1 R132H catalyzes the conversion of a-ketoglutarate to 2-hydroxyglutarate (2-HG) with the concomitant oxidation of NADPH to NADP+ [5]. Recently, a second significant advancement for the field was the finding that IDH is an oncogene, and that its metabolic product 2-HG may contribute to the pathogenesis of IDH-mutated cancers. […] Although this link to cancer is tantalizing, the direct evidence of how 2-HG drives pathogenesis of gliomas and AML remains a subject of further research. This bioassays provides profiling data on aqueous kinetic solubility (PBS @ pH7.4) of the IDH probe. […]\n1. […] Concentration of the supernatant was determined by LC-UV or LC-MS/MS", "data": [{"smiles": "Cc1ccccc1C(C(=O)NC1CCCC1)N(C(=O)Cn1cnc2ccccc21)c1cccc(F)c1", "note": "(stereo unspecified)", "values": [{"measurement": "solubility", "value": 54.3, "unit": "µM"}]}]}
